Experimental data taken from ChEMBL document CHEMBL5543173, “Discovery of a New Anti-Inflammatory Agent from Anemoside B4 Derivatives and Its Therapeutic Effect on Colitis by Targeting Pyruvate Carboxylase” (J Med Chem, 2024).
Active and inactive are the calls of the source. The rule behind the calls is not given here.

Experiments:
[1] = Half life in colon of ICR mouse at 15 mg/kg, IG measured for 12 hrs by LC-MS/MS analysis; format: ADME, organism-based; conditions: po
[2] = system: Mus musculus; assay: Anti-colitis activity in ICR mouse model assessed as decrease in DSS-induced DAI score at 60 mg/kg, IG treated for 8 days consecutively in presence of DADA; format: functional, organism-based; conditions: time 8.0 day
[3] = system: Mus musculus; assay: Anti-colitis activity in ICR mouse model assessed as decrease in DSS-induced body weight loss at 15 to 60 mg/kg, IG treated for 9 days consecutively; format: functional, organism-based; conditions: dose 15-60 mg/kg, time 9.0 day
[4] = system: THP-1; assay: Anti-inflammatory activity in human THP-1 cells assessed as decrease in LPS-induced IL-1beta level at 10 uM pretreated for 1 hr followed by LPS treatment for 24 hrs in presence of DADA by ELISA; format: functional, cell-based; conditions: time 25.0 hrs
[5] = system: Mus musculus; assay: Anti-colitis activity in ICR mouse model assessed as decrease in DSS-induced IL-6 level at 60 mg/kg, IG treated for 8 days consecutively in presence of DADA; format: functional, organism-based; conditions: time 8.0 day
[6] = Cmax in Sprague-Dawley rat administered as hydroxypropyl-beta-cyclodextrin at 20 mg/kg, IG measured for 12 hrs by LC-MS/MS analysis; format: ADME, organism-based; conditions: in vivo, po
[7] = system: Mus musculus; assay: Anti-colitis activity in ICR mouse model assessed as reversal of DSS-induced colon shortening administered intragastrically for 9 days consecutively; format: functional, organism-based; conditions: route ig, time 9.0 day
[8] = Toxicity in ICR mouse assessed as change in body weight at 300 mg/kg, IG measured for 9 days; format: organism-based; conditions: in vivo, po, 216 h, time 9 day
[9] = Tmax in colon of ICR mouse at 15 mg/kg, IG measured for 12 hrs by LC-MS/MS analysis; format: ADME, organism-based; conditions: po
[10] = AUC (0 to t) in colon of ICR mouse at 15 mg/kg, IG measured for 12 hrs by LC-MS/MS analysis; format: ADME, organism-based; conditions: po
[11] = AUC (0 to t) in Sprague-Dawley rat administered as hydroxypropyl-beta-cyclodextrin at 20 mg/kg, IG measured for 12 hrs by LC-MS/MS analysis; format: ADME, organism-based; conditions: in vivo, po
[12] = system: Mus musculus; assay: Anti-colitis activity in ICR mouse model assessed as increase in DSS-reduced pyruvate level at 60 mg/kg, IG treated for 8 days consecutively; format: functional, organism-based; conditions: time 8.0 day
[13] = system: Mus musculus; assay: Anti-colitis activity in ICR mouse model assessed as decrease in DSS-induced P65 phosphorylation in colon tissue at 60 mg/kg, IG treated for 8 days consecutively in presence of DADA by Western blot analysis; format: functional, organism-based; conditions: time 8.0 day
[14] = system: Mus musculus; assay: Anti-colitis activity in ICR mouse model assessed as decrease in DSS-induced apoptosis in colon tissue at 60 mg/kg, IG treated for 8 days consecutively in presence of DADA by H and E staining based analysis; format: functional, organism-based; conditions: time 8.0 day
[15] = Toxicity in ICR mouse assessed as change in kidney index at 300 mg/kg, IG measured for 9 days; format: organism-based; conditions: in vivo, po, 216 h, time 9 day
[16] = system: Mus musculus; assay: Anti-colitis activity in ICR mouse model assessed as decrease in DSS-induced epithelial cell injury in colon tissue at 15 to 60 mg/kg, IG treated for 8 days consecutively by H and E staining based analysis; format: functional, organism-based; conditions: dose 15-60 mg/kg, time 8.0 day
[17] = system: THP-1; assay: Anti-inflammatory activity in human THP-1 cells assessed as decrease in LPS-induced TNF-alpha level pretreated for 1 hr followed by LPS treatment for 24 hrs by ELISA; format: functional, cell-based; conditions: dose 0.1-10 µM, time 25.0 hrs
[18] = Toxicity in ICR mouse assessed as change in heart index at 300 mg/kg, IG measured for 9 days; format: organism-based; conditions: in vivo, po, 216 h, time 9 day
[19] = system: Mus musculus; assay: Anti-colitis activity in ICR mouse model assessed as reversal of DSS-induced spleen weight at 15 to 60 mg/kg, IG treated for 9 days consecutively; format: functional, organism-based; conditions: dose 15-60 mg/kg, time 9.0 day
[20] = system: Mus musculus; assay: Anti-colitis activity in ICR mouse model of DSS-induced colitis assessed as effect on pyruvate carboxylase expression in colon tissue at 60 mg/kg, IG treated for 8 days consecutively by Western blot analysis; format: functional, organism-based; conditions: time 8.0 day
[21] = system: Mus musculus; assay: Anti-colitis activity in ICR mouse model assessed as decrease in DSS-induced epithelial cell injury in colon tissue at 60 mg/kg, IG treated for 8 days consecutively in presence of DADA by H and E staining based analysis; format: functional, organism-based; conditions: time 8.0 day
[22] = system: Mus musculus; assay: Anti-colitis activity in ICR mouse model assessed as increase in DSS-reduced pyruvate level at 60 mg/kg, IG treated for 8 days consecutively in presence of DADA; format: functional, organism-based; conditions: time 8.0 day
[23] = MRT (0 to t) in ICR mouse at 15 mg/kg, IG measured for 12 hrs by LC-MS/MS analysis; format: ADME, organism-based; conditions: in vivo, po
[24] = Toxicity in ICR mouse assessed as change in liver index at 300 mg/kg, IG measured for 9 days; format: organism-based; conditions: in vivo, po, 216 h, time 9 day
[25] = Half life in Sprague-Dawley rat administered as hydroxypropyl-beta-cyclodextrin at 20 mg/kg, IG measured for 12 hrs by LC-MS/MS analysis; format: ADME, organism-based; conditions: in vivo, po
[26] = Stability in mouse liver microsomes assessed as intrinsic clearance at 10 uM preincubated for 5 mins followed by NADPH addition measured for 10 to 480 mins by LC-MS/MS analysis; format: ADME, Microsome; conditions: time 15-485 min
[27] = system: THP-1; assay: Anti-inflammatory activity in human THP-1 cells assessed as decrease in LPS-induced IL-6 level at 10 uM pretreated for 1 hr followed by LPS treatment for 24 hrs in presence of DADA by ELISA; format: functional, cell-based; conditions: time 25.0 hrs
[28] = system: THP-1; assay: Anti-inflammatory activity in human THP-1 cells assessed as decrease in LPS-induced phosphorylated p65 level pretreated for 1 hr followed by LPS treatment for 6 hrs by Western blot analysis; format: functional, cell-based; conditions: dose 1-10 µM, time 7.0 hrs
[29] = Tmax in Sprague-Dawley rat administered as hydroxypropyl-beta-cyclodextrin at 20 mg/kg, IG measured for 12 hrs by LC-MS/MS analysis; format: ADME, organism-based; conditions: in vivo, po
[30] = Cmax in ICR mouse at 15 mg/kg, IG measured for 12 hrs by LC-MS/MS analysis; format: ADME, organism-based; conditions: in vivo, po
[31] = system: THP-1; assay: Anti-inflammatory activity in human THP-1 cells assessed as decrease in LPS-induced phosphorylated I-kappaB-alpha level pretreated for 1 hr followed by LPS treatment for 6 hrs by Western blot analysis; format: functional, cell-based; conditions: dose 1-10 µM, time 7.0 hrs

In the case of `C=C(C)[C@@H]1CC[C@]2(C(=O)NCCCCCC(=O)OC)CC[C@]3(C)[C@H](CC[C@@H]4[C@@]5(C)CC[C@H](O[C@@H]6OC[C@H](O)[C@H](O)[C@H]6O[C@@H]6O[C@@H](C)[C@H](O)[C@@H](O)[C@H]6O)[C@@](C)(CO)[C@@H]5CC[C@]43C)[C@@H]12`, the half-life [1] is reported as 1.54 h, the Activity [2] is reported as “inactive” and the Activity [3] is reported as “Active”. For the same molecule, the Activity [4] was “inactive”, the Activity [5] was “inactive” and the Cmax [6] was 57.5 ng/mL. For the same molecule, the Activity [7] was “Dose-Dependent Effect”, the Activity [8] was “Non-Toxic” and the Tmax [9] was 1.58 h. The AUC(0-t) at 12 h [10] was 3210 ng·h/mL, the AUCt [11] was 223.22 ng·h/mL and the Activity [12] was “Active”. The Activity [13] was “inactive”, the Activity [14] was “inactive” and the Activity [15] was “Non-Toxic”. The Activity [16] was “Active”, the Activity [17] was “Dose-Dependent Effect” and the Activity [18] was “Non-Toxic”. For the same molecule, the Activity [19] was “Active”, the Activity [20] was “inactive” and the Activity [21] was “inactive”. The Activity [22] was “inactive”, the MRT last at 12 h [23] was 3.1 h and the Activity [24] was “Non-Toxic”. For the same molecule, the t1/2 [25] was 1.38 h, the CLH [26] was 6.46 µL/min/mg and the Activity [27] was “inactive”. For the same molecule, the Activity [28] was “Dose-Dependent Effect”, the Tmax [29] was 0.5 h and the Cmax [30] was 40.4 ng/mL. For the same molecule, the Activity [31] was “Dose-Dependent Effect”.
